# Experimental data: patent publication US20250163043A1 (TRANSTHERA SCIENCES (NANJING), INC., priority 2021, published 2025)
# Legend:
# Type in all cases: biochemical
# CDK2/CycA2 = CDK2/CycA2 (Homo sapiens, UniProt P24941); assay: ADP-Glo kinase assay on CDK enzymatic activity, CDK2/CycA2; settings: 10 concentrations from 10 μM, 4-fold, 60 min room temperature
# From the text: (§1) Test samples: the compounds of the present invention, having structures shown above.
# (§2) ADP-Glo Kinase Assay (ADP-Glo kinase kit), DMSO (dimethyl sulfoxide), CDK9/CycT1 (cyclin-dependent kinase 9/cyclin T1), CDK tide (cyclin-dependent kinase substrate peptide fragments), CDK1/CycE1 (cyclin-dependent kinase 1/cyclin E1), CDK2/CycA2 (cyclin-dependent kinase 2/cyclin A2), CDK3/CycE1 (cyclin-dependent kinase 3/cyclin E1), CDK4/CycD3 (cyclin-dependent kinase 4/cyclin D3), CDK5/p25NCK (cyclin-dependent kinase 5/p25), and AZD 4573.
# (§3) A 384-well white plate, a 96-well plate, a microplate oscillator, a centrifuge, and a microplate reader.
# (§4) The compounds were dissolved in DMSO and diluted 4-fold in the 96-well plate to obtain stock solutions with 10 concentration gradients, and added into a 384-well plate system to obtain a series of 10 concentration gradients of compound solutions with final concentrations of 10 μM starting and 4-fold gradient decreasing. 1 μM AZD4573 was used as compound positive control (PC) and 0.5% DMSO as solvent vehicle control (VC), ten duplicated wells each for PC and VC.
# (§5) 1 μL of compound solution and 2 μL of 2× kinase solution were transferred to each well, and the plate was centrifuged at 1000 g for 30 s and left at room temperature for 10 min. A mixture of 2× substrate and ATP was prepared in 1× kinase buffer. The reaction was started after adding 2 μL of substrate and ATP into the plate. The plate was centrifuged at 1000 g for 30 s. The assay plate was closed and left at room temperature for 60 min. The reaction system was added with 4 μL of ADP Glo reagent, centrifuged at 1000 rpm for 1 min, and incubated at room temperature for 40 min. The reaction system was added with 8 μL of kinase assay reagent, centrifuged at 1000 rpm for 1 min and incubated at room temperature for 40 min. The […] was read on Biotek.
# (§6) The inhibition rate was calculated according to the following formula: […]
# (§7) Lumcmpd: compound fluorescence reading; Lumpositive: average value of the fluorescence reading of positive compound control; Lumvehicle: average value of the fluorescence reading of solvent vehicle control.
# (§8) IC50 values were fitted using GraphPad 7.0 based on inhibition rates of compounds at different concentrations.
# CDK3/CycE1 = CDK3/CycE1 (Homo sapiens, UniProt Q00526); assay: ADP-Glo kinase assay on CDK enzymatic activity, CDK3/CycE1; settings: 10 concentrations from 10 μM, 4-fold, 60 min room temperature
# CDK3/CycE1, sequence (Q00526 whole entry, species assumed): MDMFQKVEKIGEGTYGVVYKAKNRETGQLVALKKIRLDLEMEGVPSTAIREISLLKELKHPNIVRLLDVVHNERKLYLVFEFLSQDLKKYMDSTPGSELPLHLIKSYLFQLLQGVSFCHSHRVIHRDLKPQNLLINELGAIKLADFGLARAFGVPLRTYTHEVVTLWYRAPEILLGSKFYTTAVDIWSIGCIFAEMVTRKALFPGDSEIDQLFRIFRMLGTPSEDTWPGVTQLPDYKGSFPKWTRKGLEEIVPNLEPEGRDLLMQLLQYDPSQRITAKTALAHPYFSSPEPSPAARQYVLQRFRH
# CDK3/CycE1, sequence (P24864 whole entry partner, species assumed): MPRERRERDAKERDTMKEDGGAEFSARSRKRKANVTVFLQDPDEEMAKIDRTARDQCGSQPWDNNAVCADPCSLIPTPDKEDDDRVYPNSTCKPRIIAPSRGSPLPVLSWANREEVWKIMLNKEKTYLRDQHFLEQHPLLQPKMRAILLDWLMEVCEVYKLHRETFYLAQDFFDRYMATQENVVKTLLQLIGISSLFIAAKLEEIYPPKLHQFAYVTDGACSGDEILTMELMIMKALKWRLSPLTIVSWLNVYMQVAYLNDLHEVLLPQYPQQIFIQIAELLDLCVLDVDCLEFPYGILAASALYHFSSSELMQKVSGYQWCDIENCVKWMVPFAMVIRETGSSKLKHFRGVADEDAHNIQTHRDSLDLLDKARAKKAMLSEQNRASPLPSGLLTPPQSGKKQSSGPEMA
# From the text: as §1, §2, §3, §4, §5, §6, §7, §8
# CDK5/p25NCK = CDK5/p25NCK (Homo sapiens, UniProt Q00535); assay: ADP-Glo kinase assay on CDK enzymatic activity, CDK5/p25NCK; settings: 10 concentrations from 10 μM, 4-fold, 60 min room temperature
# CDK5/p25NCK, sequence (Q00535 whole entry, species assumed): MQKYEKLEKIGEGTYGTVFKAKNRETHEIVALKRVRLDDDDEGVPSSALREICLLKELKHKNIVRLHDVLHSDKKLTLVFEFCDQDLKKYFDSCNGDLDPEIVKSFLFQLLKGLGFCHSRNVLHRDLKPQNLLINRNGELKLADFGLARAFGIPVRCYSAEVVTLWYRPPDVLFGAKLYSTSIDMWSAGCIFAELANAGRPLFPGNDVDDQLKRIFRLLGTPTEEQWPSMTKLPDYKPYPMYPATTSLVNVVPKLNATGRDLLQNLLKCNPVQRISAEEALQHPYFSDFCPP
# CDK5/p25NCK, sequence (Q15078 99-307 partner limits assumed, species assumed): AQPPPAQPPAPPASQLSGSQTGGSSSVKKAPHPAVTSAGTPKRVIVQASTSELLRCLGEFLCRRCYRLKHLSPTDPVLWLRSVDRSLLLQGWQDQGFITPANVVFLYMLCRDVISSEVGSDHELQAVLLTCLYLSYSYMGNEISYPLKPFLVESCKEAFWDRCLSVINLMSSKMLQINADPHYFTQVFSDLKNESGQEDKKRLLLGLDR
# From the text: as §1, §2, §3, §4, §5, §6, §7, §8
# CDK9/CycT1 = CDK9/CycT1 (Homo sapiens, UniProt P50750); assay: ADP-Glo kinase assay on CDK enzymatic activity, CDK9/CycT1; settings: 10 concentrations from 10 μM, 4-fold, 60 min room temperature
# CDK9/CycT1, sequence (P50750 whole entry): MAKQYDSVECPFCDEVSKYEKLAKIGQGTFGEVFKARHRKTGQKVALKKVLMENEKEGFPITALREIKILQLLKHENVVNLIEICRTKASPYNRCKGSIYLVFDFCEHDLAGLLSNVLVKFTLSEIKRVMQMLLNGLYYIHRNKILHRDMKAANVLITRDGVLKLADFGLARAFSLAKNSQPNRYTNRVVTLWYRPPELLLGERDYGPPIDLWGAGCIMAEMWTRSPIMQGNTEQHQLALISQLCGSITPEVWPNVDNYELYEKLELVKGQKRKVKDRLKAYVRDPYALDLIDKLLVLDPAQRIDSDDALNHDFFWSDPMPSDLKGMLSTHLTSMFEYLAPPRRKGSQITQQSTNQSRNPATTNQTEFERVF
# CDK9/CycT1, sequence (O60563 whole entry partner): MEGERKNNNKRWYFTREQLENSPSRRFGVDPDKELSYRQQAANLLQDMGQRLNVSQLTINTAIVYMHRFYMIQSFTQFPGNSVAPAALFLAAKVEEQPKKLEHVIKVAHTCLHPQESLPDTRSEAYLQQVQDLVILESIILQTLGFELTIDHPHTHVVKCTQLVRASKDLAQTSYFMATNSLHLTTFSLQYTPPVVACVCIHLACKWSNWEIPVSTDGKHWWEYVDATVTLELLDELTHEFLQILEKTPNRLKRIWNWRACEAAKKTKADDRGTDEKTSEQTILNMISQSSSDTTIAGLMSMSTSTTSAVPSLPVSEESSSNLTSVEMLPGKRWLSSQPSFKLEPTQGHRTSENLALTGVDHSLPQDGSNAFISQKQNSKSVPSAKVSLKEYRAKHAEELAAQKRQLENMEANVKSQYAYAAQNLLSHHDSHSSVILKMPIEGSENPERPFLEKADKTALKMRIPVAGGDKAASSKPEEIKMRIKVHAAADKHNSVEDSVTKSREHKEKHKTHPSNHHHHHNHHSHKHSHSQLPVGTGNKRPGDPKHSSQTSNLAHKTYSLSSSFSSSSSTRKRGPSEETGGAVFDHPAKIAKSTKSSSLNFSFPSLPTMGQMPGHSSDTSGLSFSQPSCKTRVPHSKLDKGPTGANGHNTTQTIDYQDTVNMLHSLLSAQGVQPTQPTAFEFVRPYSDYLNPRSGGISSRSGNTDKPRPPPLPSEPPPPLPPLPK
# From the text: as §1, §2, §3, §4, §5, §6, §7, §8
# CDK1/CycE1 = CDK1/CycE1 (Homo sapiens, UniProt P06493); assay: ADP-Glo kinase assay on CDK enzymatic activity, CDK1/CycE1; settings: ADP-Glo; 10 concentrations from 10 μM, 4-fold; 60 min room temperature; read-out: CDK1/CycE1/nM (IC50)
# CDK1/CycE1, sequence (P06493 whole entry, species assumed): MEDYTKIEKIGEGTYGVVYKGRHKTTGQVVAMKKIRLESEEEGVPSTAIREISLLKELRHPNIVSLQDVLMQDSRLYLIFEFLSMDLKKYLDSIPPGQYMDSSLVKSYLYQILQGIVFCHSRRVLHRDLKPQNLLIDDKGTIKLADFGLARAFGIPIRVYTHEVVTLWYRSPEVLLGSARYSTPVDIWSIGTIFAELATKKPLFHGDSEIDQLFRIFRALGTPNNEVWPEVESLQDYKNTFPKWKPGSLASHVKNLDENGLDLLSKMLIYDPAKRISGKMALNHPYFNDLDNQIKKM
# CDK1/CycE1, sequence (P24864 whole entry partner, species assumed): as the sequence (P24864 whole entry partner, species assumed) above
# Procedure: as §1, §3, §4, §5, §6, §7, §8
SMILES,IC50 (CDK2/CycA2),IC50 (CDK3/CycE1),IC50 (CDK5/p25NCK),IC50 (CDK9/CycT1),IC50 (CDK1/CycE1)
"CC(=O)N[C@@H]1CCC[C@H](C(=O)Nc2cc3c(NC(C)C)nc(C#N)cc3cn2)C1 [Compound 2, (1S,3R)-3-acetamido-N-(7-cyano-5-(isopropylamino)-2,6-naphthyridin-3-yl)cyclohexane-1-carboxamide]",669 nM,179 nM,783 nM,8 nM,–
"C#Cc1cc2cnc(NC(=O)[C@H]3CCC[C@@H](NC(C)=O)C3)cc2c(NC(C)C)n1 [Compound 13, (1S,3R)-3-acetamido-N-(7-ethynyl-5-(isopropylamino)-2,6-naphthyridin-3-yl)cyclohexane-1-carboxamide]",402 nM,41 nM,527 nM,13 nM,–
"CC(=O)N[C@@H]1CCC[C@H](C(=O)Nc2cc3c(NC(C)C)nc(CCO)cc3cn2)C1 [Compound 14, (1S,3R)-3-acetamido-N-(7-(2-hydroxyethyl)-5-(isopropylamino)-2,6-naphthyridin-3-yl)cyclohexane-1-carboxamide]",284 nM,91 nM,187 nM,11 nM,–
"CC(=O)N1CCC[C@H](C(=O)Nc2cc3c(NC(C)C)nc(C#N)cc3cn2)C1 [Compound 24, (S)-1-acetyl-N-(7-cyano-5-(isopropylamino)-2,6-naphthyridin-3-yl)piperidine-3-carboxamide]",3340 nM,862 nM,5340 nM,26 nM,–
"CC(C)Nc1nc(C#N)cc2cnc(N[C@H]3CC[C@@H](N)C3)cc12 [Compound 29, 7-(((1S,3R)-3-aminocyclopentyl)amino)-1-(isopropylamino)-2,6-naphthyridine-3-carbonitrile]",514 nM,1210 nM,461 nM,4 nM,–
"CC(C)(C)Nc1nc(C#N)cc2cnc(N[C@H]3CC[C@H](N)C3)cc12 [Compound 34, 7-(((1S,3S)-3-aminocyclopentyl)amino)-1-(tert-butylamino)-2,6-naphthyridine-3-carbonitrile]",128 nM,137 nM,238 nM,2 nM,–
"CC(C)(C)Nc1nc(C(F)F)cc2cnc(N[C@H]3C[C@H](O)C3)nc12 [Compound C8, (1r,3r)-3-((8-(tert-butylamino)-6-(difluoromethyl)pyrido[3,4-d]pyrimidin-2-yl)amino)cyclobutan-1-ol]",5 nM,–,–,2 nM,8 nM
"CC(C)(C)Nc1nc(C#N)cc2cnc(N[C@H]3C[C@H](O)C3)nc12 [Compound C9, 8-(tert-butylamino)-2-(((1r,3r)-3-hydroxycyclobutyl)amino)pyrido[3,4-d]pyrimidine-6-carbonitrile]",8 nM,–,–,1 nM,8 nM
"N#Cc1cc2cnc(N[C@H]3C[C@H](N)C3)nc2c(N[C@@H]2CCOC2)n1 [Compound C13, 2-(((1r,3R)-3-aminocyclobutyl)amino)-8-(((R)-tetrahydrofuran-3-yl)amino)pyrido[3,4-d]pyrimidine-6-carbonitrile]",85 nM,–,–,2 nM,187 nM
"CCCNc1nc(C#N)cc2cnc(N[C@H]3C[C@H](N)C3)nc12 [Compound C14, 2-(((1r,3r)-3-aminocyclobutyl)amino)-8-(propylamino)pyrido[3,4-d]pyrimidine-6-carbonitrile]",32 nM,–,–,2 nM,127 nM
"N#Cc1cc2cnc(N[C@H]3C[C@H](N)C3)nc2c(N2CCCCC2)n1 [Compound C15, 2-(((1r,3r)-3-aminocyclobutyl)amino)-8-(piperidin-1-yl)pyrido[3,4-d]pyrimidine-6-carbonitrile]",253 nM,–,–,2 nM,114 nM
"CC(C)Nc1nc(C#N)cc2cnc(N[C@H]3C[C@H](CN)C3)nc12 [Compound C16, 2-(((1r,3r)-3-(aminomethyl)cyclobutyl)amino)-8-(isopropylamino)pyrido[3,4-d]pyrimidine-6-carbonitrile]",22 nM,–,–,2 nM,81 nM
"CC(C)(C)Nc1nc(C#N)cc2cnc(N[C@H]3C[C@H](N)C3)nc12 [Compound C18, 2-(((1r,3r)-3-aminocyclobutyl)amino)-8-(tert-butylamino)pyrido[3,4-d]pyrimidine-6-carbonitrile]",8 nM,–,–,2 nM,23 nM
"CN[C@H]1C[C@H](Nc2ncc3cc(C#N)nc(NC(C)C)c3n2)C1 [Compound C20, 8-(isopropylamino)-2-(((1r,3r)-3-(methylamino)cyclobutyl)amino)pyrido[3,4-d]pyrimidine-6-carbonitrile]",18 nM,–,–,1 nM,71 nM
"CC(C)Nc1nc(C#N)cc2cnc(N[C@H]3C[C@H](N4CCN(C)CC4)C3)nc12 [Compound C22, 8-(isopropylamino)-2-(((1r,3r)-3-(4-methylpiperazin-1-yl)cyclobutyl)amino)pyrido[3,4-d]pyrimidine-6-carbonitrile]",24 nM,–,–,2 nM,218 nM
"CC(C)Nc1nc(C#N)cc2cnc(N[C@H]3C[C@@H](N4CCN(C)CC4)C3)nc12 [Compound C23, 8-(isopropylamino)-2-(((1s,3s)-3-(4-methylpiperazin-1-yl)cyclobutyl)amino)pyrido[3,4-d]pyrimidine-6-carbonitrile]",59 nM,–,–,6 nM,288 nM
"CC(C)Nc1nc(C#N)cc2cnc(N[C@H]3C[C@H](N(C)C)C3)nc12 [Compound C24, 2-(((1r,3r)-3-(dimethylamino)cyclobutyl)amino)-8-(isopropylamino)pyrido[3,4-d]pyrimidine-6-carbonitrile]",115 nM,–,–,2 nM,142 nM
"CC(C)CNc1nc(C#N)cc2cnc(N[C@H]3C[C@H](N)C3)nc12 [Compound C25, 2-(((1r,3r)-3-aminocyclobutyl)amino)-8-(isobutylamino)pyrido[3,4-d]pyrimidine-6-carbonitrile]",34 nM,–,–,1 nM,86 nM
"CC(C)Nc1nc(C#N)cc2cnc(N[C@H]3C[C@](C)(N)C3)nc12 [Compound C26, 2-(((1r,3r)-3-amino-3-methylcyclobutyl)amino)-8-(isopropylamino)pyrido[3,4-d]pyrimidine-6-carbonitrile]",93 nM,–,–,1 nM,34 nM
"CCNc1nc(C#N)cc2cnc(N[C@H]3C[C@H](N)C3)nc12 [Compound C28, 2-(((1r,3r)-3-aminocyclobutyl)amino)-8-(ethylamino)pyrido[3,4-d]pyrimidine-6-carbonitrile]",34 nM,–,–,1 nM,186 nM
"N#Cc1cc2cnc(N[C@H]3C[C@H](N)C3)nc2c(NC2CCOCC2)n1 [Compound C30, 2-(((1r,3r)-3-aminocyclobutyl)amino)-8-((tetrahydro-2H-pyran-4-yl)amino)pyrido[3,4-d]pyrimidine-6-carbonitrile]",83 nM,–,–,2 nM,99 nM
"CC(C)Nc1nc(C#N)cc2cnc(N[C@H]3C[C@H](CO)C3)nc12 [Compound C31, 2-(((1r,3r)-3-(hydroxymethyl)cyclobutyl)amino)-8-(isopropylamino)pyrido[3,4-d]pyrimidine-6-carbonitrile]",5 nM,–,–,2 nM,21 nM
"CC1(Nc2nc(C#N)cc3cnc(N[C@H]4C[C@H](N)C4)nc23)CC1 [Compound C35, 2-(((1r,3r)-3-aminocyclobutyl)amino)-8-((1-methylcyclopropyl)amino)pyrido[3,4-d]pyrimidine-6-carbonitrile]",19 nM,–,–,1 nM,112 nM
"N#Cc1cc2cnc(N[C@H]3C[C@H](N)C3)nc2c(NC23CC(C2)C3)n1 [Compound C36, 2-(((1r,3r)-3-aminocyclobutyl)amino)-8-(bicyclo[1.1.1]pentan-1-ylamino)pyrido[3,4-d]pyrimidine-6-carbonitrile]",32 nM,–,–,2 nM,25 nM
"COC[C@@H](C)Nc1nc(C#N)cc2cnc(N[C@H]3C[C@H](N)C3)nc12 [Compound C41, 2-(((1r,3R)-3-aminocyclobutyl)amino)-8-(((R)-1-methoxypropan-2-yl)amino)pyrido[3,4-d]pyrimidine-6-carbonitrile]",82 nM,–,–,1 nM,540 nM
